Consider two molecules from paper PMC3709815, “Reconstructing a Flavodoxin Oxidoreductase with Early Amino Acids” (International Journal of Molecular Sciences, 2013).

Assay type in all cases: binding
The target in assay [1] is T1, Megasphaera elsdenii flavodoxin (apoflavodoxin) (Megasphaera elsdenii, UniProt P00321, C127V/C54A/F36V/F70L/F71L/F86V/M120V/M16L/M57V/M97L/W100V/W7V/W91V/W96V/Y6V/Y89V).
T1 construct: synthetic gene in pET28b(+) NdeI/BamHI, 6xHis tag kept, E. coli BL21(DE3); apoprotein by trichloroacetic acid
Description: fluorescence titration of FMN with apoflavodoxin (ex […] nm, em […] nm). Conditions: read-out: Kd,ox.

For assay [2], the target named is T2, Megasphaera elsdenii flavodoxin (apoflavodoxin) (Megasphaera elsdenii, UniProt P00321).
T2 construct: synthetic gene in pET28b(+) NdeI/BamHI, 6xHis tag kept, E. coli BL21(DE3); apoprotein by trichloroacetic acid
Description: far-UV circular dichroism of apo- and holoflavodoxin, reconstitution with FMN. Conditions: oxidized state; holoprotein reconstituted with 1.0 mM FMN, 40 mM sodium phosphate pH 7.0. In general terms: Circular dichroism is the unequal absorption of left and right circularly polarised light.

For assay [3], the target named is T1, Megasphaera elsdenii flavodoxin (apoflavodoxin). Kind of assay: calculated from Kd,ox and redox potential Em, […] (anaerobic dithionite titration with redox dyes). The conditions noted are these: read-out: Kd,hq.

T1 sequence (P00321 other isoform, or with tags, fused parts or gaps with the stated changes): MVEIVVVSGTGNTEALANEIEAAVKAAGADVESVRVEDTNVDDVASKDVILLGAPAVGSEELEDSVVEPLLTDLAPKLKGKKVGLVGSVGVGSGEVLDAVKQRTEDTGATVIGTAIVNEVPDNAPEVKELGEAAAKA
T2 sequence (P00321 whole entry): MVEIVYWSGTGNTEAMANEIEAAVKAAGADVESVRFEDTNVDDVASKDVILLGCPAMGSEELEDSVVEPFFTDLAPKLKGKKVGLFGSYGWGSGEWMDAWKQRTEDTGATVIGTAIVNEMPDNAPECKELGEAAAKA

Regarding `Cc1cc2nc3c(=O)[nH]c(=O)nc-3n(C[C@H](O)[C@H](O)[C@H](O)COP(=O)(O)O)c2cc1C` [FMN], in assay [1], the Kd – broadly, the equilibrium constant for the complex coming apart – was 0.00292 mM. The “far-UV circular dichroism of apo- and holoflavodoxin, reconstitution with FMN” value in assay [2] was “conformation transition of mutant and wild-type protein induced by FMN binding is different”.

Regarding `Cc1cc2c(cc1C)N(C[C@H](O)[C@H](O)[C@H](O)COP(=O)(O)O)c1[nH]c(=O)[nH]c(=O)c1N2` [FMNhq], the Kd in assay [3] is 43.6 mM.
